From patent publication US9556201B2, “Bicyclic pyridines and analogs as sirtuin modulators” (GLAXOSMITHKLINE LLC, priority 2009, dated 2017)

Target: T1, SIRT1 (Homo sapiens, UniProt Q96EB6)
T1 sequence (Q96EB6 1-747): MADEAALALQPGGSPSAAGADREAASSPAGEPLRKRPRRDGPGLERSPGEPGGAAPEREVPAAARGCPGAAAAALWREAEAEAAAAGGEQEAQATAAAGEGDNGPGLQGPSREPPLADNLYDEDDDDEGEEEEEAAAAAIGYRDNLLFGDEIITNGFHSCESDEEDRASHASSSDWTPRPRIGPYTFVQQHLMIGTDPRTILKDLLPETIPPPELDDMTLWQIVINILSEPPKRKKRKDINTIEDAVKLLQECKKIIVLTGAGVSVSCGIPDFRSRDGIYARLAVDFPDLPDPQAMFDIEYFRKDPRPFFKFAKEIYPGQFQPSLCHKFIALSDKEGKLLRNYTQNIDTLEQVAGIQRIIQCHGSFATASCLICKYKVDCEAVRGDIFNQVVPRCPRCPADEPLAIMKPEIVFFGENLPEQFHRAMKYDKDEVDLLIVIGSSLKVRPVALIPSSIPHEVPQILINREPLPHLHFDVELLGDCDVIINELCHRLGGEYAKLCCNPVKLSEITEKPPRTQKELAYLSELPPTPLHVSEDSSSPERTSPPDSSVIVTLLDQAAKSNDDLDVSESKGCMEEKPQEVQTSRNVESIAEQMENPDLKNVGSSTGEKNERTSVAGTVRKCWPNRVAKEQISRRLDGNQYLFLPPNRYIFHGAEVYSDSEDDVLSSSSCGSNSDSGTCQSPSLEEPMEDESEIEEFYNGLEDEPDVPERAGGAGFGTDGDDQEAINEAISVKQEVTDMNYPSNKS
Assay: Mass spectrometry based assay to identify modulators of SIRT1 activity (deacetylation of p53-based acetylated peptide substrate)
Assay type: biochemical
Conditions: for Emax: 25 min, read-out: % FOLD ACT. (percent maximum fold activation); for Emax / EC1.5: SIRT1 activation
Text: A mass spectrometry based assay was used to identify modulators of SIRT1 activity. The mass spectrometry based assay utilizes a peptide having 20 amino acid residues as follows: Ac-EE-K(biotin)-GQSTSSHSK(Ac)NleSTEG-K(5TMR)-EE-NH2 (SEQ ID NO: 1) wherein K(Ac) is an acetylated lysine residue and Nle is a norleucine. The peptide is labeled with the fluorophore 5TMR (excitation 540 nm/emission 580 nm) at the C-terminus. The sequence of the peptide substrate is based on p53 with several modifications. In addition, the methionine residue naturally present in the sequence was replaced with the norleucine because the methionine may be susceptible to oxidation during synthesis and purification.
The mass spectrometry assay is conducted as follows: […] peptide substrate and 120 μM βNAD^+ is incubated with 10 nM SIRT1 for 25 minutes at 25° C. in a reaction buffer (50 mM Tris-acetate pH 8, 137 mM NaCl, 2.7 mM KCl, 1 mM MgCl2, 5 mM DTT, 0.05% BSA). Test compounds may be added to the reaction as described above. The SirT1 gene is cloned into a T7-promoter containing vector and transformed into BL21(DE3). After the 25 minute incubation with SIRT1, 10 μL of 10% formic acid is added to stop the reaction. Reactions are sealed and frozen for later mass spec analysis. Determination of the mass of the substrate peptide allows for precise determination of the degree of acetylation (i.e. starting material) as compared to deacetylated peptide (product).
A control for inhibition of sirtuin activity is conducted by adding 1 μL of 500 mM nicotinamide as a negative control at the start of the reaction (e.g., permits determination of maximum sirtuin inhibition). A control for activation of sirtuin activity is conducted using 10 nM of sirtuin protein, with 1 μL of DMSO in place of compound, to determine the amount of deacetylation of the substrate at a given timepoint within the linear range of the assay. This timepoint is the same as that used for test compounds and, within the linear range, the endpoint represents a change in velocity.
For the above assay, SIRT1 protein was expressed and purified as follows. The SirT1 gene was cloned into a T7-promoter containing vector and transformed into BL21(DE3). The protein was expressed by induction with 1 mM IPTG as an N-terminal His-tag fusion protein at 18° C. overnight and harvested at 30,000×g. Cells were lysed with lysozyme in lysis buffer (50 mM Tris-HCl, 2 mM Tris[2-carboxyethyl]phosphine (TCEP), 10 μM ZnCl2, 200 mM NaCl) and further treated with sonication for 10 min for complete lysis. The protein was purified over a Ni-NTA column (Amersham) and fractions containing pure protein were pooled, concentrated and run over a sizing column (Sephadex S200 26/60 global). The peak containing soluble protein was collected and run on an Ion-exchange column (MonoQ). Gradient elution (200 mM-500 mM NaCl) yielded pure protein. This protein was concentrated and dialyzed against dialysis buffer (20 mM Tris-HCl, 2 mM TCEP) overnight. The protein was aliquoted and frozen at −80° C. until further use.

Compound	Emax [%]	EC1.5	EC1.5 (concentration giving 1.5-fold activation) [µM]
O=C(Nc1ccncc1)N1CCCc2ccc(-c3cccc(F)c3)nc21 [Compound 648]	> 200	A (EC1.5<1.0 μM)	
O=C(Nc1ccccn1)N1CCCc2ccc(-c3cccc(F)c3)nc21 [Compound 649]	> 200	A (EC1.5<1.0 μM)	
O=C(Nc1cccnc1)N1CCCc2ccc(-c3cccc(F)c3)nc21 [Compound 650]	> 200	B (EC1.5 1-25 μM)	
O=C(Nc1ccncc1)N1CCCc2ccc(-c3cccc(Cl)c3)nc21 [Compound 651]	> 200	A (EC1.5<1.0 μM)	
O=C(Nc1ccccn1)N1CCCc2ccc(-c3cccc(Cl)c3)nc21 [Compound 652]	> 200	A (EC1.5<1.0 μM)	
Cc1cncc(NC(=O)N2CCCOc3ccc(-c4ccnc(C)c4)nc32)c1 [Compound 655]	≤ 200	B (EC1.5 1-25 μM)	
Cc1cc(NC(=O)N2CCCOc3ccc(-c4ccnc(C)c4)nc32)ccn1 [Compound 656]	> 200	B (EC1.5 1-25 μM)	
Cc1cc(-c2ccc3c(n2)N(C(=O)Nc2cc(C)nc(C)c2)CCCO3)ccn1 [Compound 657]	> 200	B (EC1.5 1-25 μM)	
O=C(Nc1ncccn1)N1CCCc2ccc(-c3cccc(F)c3)nc21 [Compound 665]	> 200	B (EC1.5 1-25 μM)	
O=C(Nc1ncccn1)N1CCCc2ccc(-c3cccc(C(F)(F)F)c3)nc21 [Compound 666]	> 200	A (EC1.5<1.0 μM)	
O=C(Nc1ncccn1)N1CCCc2ccc(-c3cccc(Cl)c3)nc21 [Compound 667]	> 200	B (EC1.5 1-25 μM)	
O=C(Nc1ccncc1)N1CCOc2ccc(-c3ccccc3)nc21 [Compound 673]	> 200	A (EC1.5<1.0 μM)	
Cc1cc(-c2ccc3c(n2)N(C(=O)Nc2ccncn2)CCCO3)ccn1 [Compound 674]	> 200	B (EC1.5 1-25 μM)	
Cc1cc(-c2ccc3c(n2)N(C(=O)Nc2nc(C)cs2)CCCO3)ccn1 [Compound 676]	> 200	B (EC1.5 1-25 μM)	
CN(C)Cc1cccc(-c2ccc3c(n2)N(C(=O)Nc2cccnc2)CC(C)(C)O3)c1 [Compound 677, 6-(3-((dimethylamino)methyl)phenyl)-2,2-dimethyl-N-(pyridin-3-yl)-2H-pyrido[3,2-b][1,4]oxazine-4(3H)-carboxamide]	> 200	B (EC1.5 1-25 μM)	
O=C(Nc1cccc(OC[C@H](O)CO)n1)N1CCCc2ccc(-c3cccc(F)c3)nc21 [Compound 679]	> 200	A (EC1.5<1.0 μM)	
Cc1ccc(-c2ccc3c(n2)N(C(=O)Nc2nc(C)cs2)CCCO3)cn1 [Compound 680]	> 200	B (EC1.5 1-25 μM)	
Cc1ccc(-c2ccc3c(n2)N(C(=O)Nc2ccncn2)CCCO3)cn1 [Compound 681]	≤ 200	C (EC1.5>25 μM)	
Cc1cc(-c2cccc(Cl)c2)nc2c1OCCN2C(=O)Nc1ccncn1 [Compound 685]	> 200	A (EC1.5<1.0 μM)	
Cc1cc(-c2cccc(Cl)c2)nc2c1OCCN2C(=O)Nc1ccncc1 [Compound 686]	> 200	A (EC1.5<1.0 μM)	
Cc1cc(-c2cccc(Cl)c2)nc2c1OCCN2C(=O)Nc1ccncc1F [Compound 687]	> 200	A (EC1.5<1.0 μM)	

Compound	Emax [%]	EC1.5	EC1.5 (concentration giving 1.5-fold activation) [µM]
O=C(Nc1c(F)c(F)c(F)c(F)c1F)N1CCCOc2ccc(-c3cccc(C(F)(F)F)c3)nc21 [Compound 693]	≤ 200	C (EC1.5>25 μM)	
Cc1ccc(-c2ccc3c(n2)N(C(=O)Nc2cccc(OC[C@H](O)CO)n2)CCO3)cn1 [Compound 694]	> 200	B (EC1.5 1-25 μM)	
Cc1cc(OCC(O)CO)nc(NC(=O)N2CCOc3ccc(-c4cccc(C(F)(F)F)c4)nc32)n1 (stereo not shown) [Compound 698]	≤ 200		1 to 25
O=C(Nc1cccc(OC[C@H](O)CO)n1)N1CCCc2ccc(-c3ccc4c(c3)CCO4)nc21 [Compound 702]	> 200		< 1
Cc1nc(NC(=O)N2CCCOc3ccc(-c4cccc(Cl)c4)nc32)sc1C [Compound 703]	> 200		< 1
Cc1cnc(NC(=O)N2CCCOc3ccc(-c4cccc(Cl)c4)nc32)s1 [Compound 704]	≤ 200		1 to 25
Cn1ccc(NC(=O)N2CCCOc3ccc(-c4cccc(Cl)c4)nc32)n1 [Compound 705]	> 200		1 to 25
Cn1nccc1NC(=O)N1CCCOc2ccc(-c3cccc(Cl)c3)nc21 [Compound 706]	≤ 200		> 25
Cn1cc(NC(=O)N2CCCOc3ccc(-c4cccc(Cl)c4)nc32)cn1 [Compound 708]	> 200		1 to 25
Cc1csc(NC(=O)N2CCOc3cnc(-c4cccc(C(F)(F)F)c4)nc32)n1 [Compound 709, N-(4-methylthiazol-2-yl)-2-(3-(trifluoromethyl)phenyl)-6H-pyrimido[5,4-b][1,4]oxazine-8(7H)-carboxamide]	≤ 200		> 25
Cc1cc(C)nc(NC(=O)N2CCOc3cnc(-c4cccc(C(F)(F)F)c4)nc32)c1 [Compound 712]	≤ 200		> 25
O=C(Nc1ccncn1)N1CCOc2cnc(-c3cccc(C(F)(F)F)c3)nc21 [Compound 714]	≤ 200		1 to 25
O=C(Nc1ccncc1)N1CCOc2cnc(-c3cccc(C(F)(F)F)c3)nc21 [Compound 715]	≤ 200		1 to 25
O=C(Nc1ccncc1F)N1CCOc2cnc(-c3cccc(C(F)(F)F)c3)nc21 [Compound 716]	> 200		1 to 25
Cc1cc(NC(=O)N2CCOc3c(N4CCCC4)nc(-c4cccc(F)c4)nc32)cc(C)n1 [Compound 718]	≤ 200		1 to 25
O=C1CCN(C(=O)Nc2ccncc2)c2nc(-c3cccc(C(F)(F)F)c3)ccc21 [Compound 719, 4-oxo-N-(pyridin-4-yl)-7-(3-(trifluoromethyl)phenyl)-3,4-dihydro-1,8-naphthyridine-1(2H)-carboxamide]	> 200		1 to 25
O=C(Nc1ccncc1)N1CCOc2cnc(-c3cccc(Cl)c3)nc21 [Compound 720]	≤ 200		1 to 25
O=C(Nc1ccncc1)N1CCOc2cnc(-c3cccc(N4CCOCC4)c3)nc21 [Compound 721]	> 200		1 to 25
O=C(Nc1ccncc1)N1CCOc2cnc(-c3cccc(N4CCCC4)c3)nc21 [Compound 722]	> 200		1 to 25
O=C(Nc1ccncc1)N1CCOc2ncc(-c3cccc(C(F)(F)F)c3)nc21 [Compound 723]	≤ 200		1 to 25
